Laboratory results reported in patent publication US10294248B2, “Beta-lactamase inhibitors” (VenatoRx Pharmaceuticals, Inc., priority 2013, dated 2019).

How the values were obtained:
[1] = test system: E. coli ESBL4 expressing CTX-M-15; experiment: Broth microdilution MIC, E. coli ESBL4 CTX-M-15; type: cell-based; conditions: for MIC of example compound in presence of fixed β-lactam: Fixed CAZ, E. coli ESBL4 CTX-M-15: fixed 4 μg/mL ceftazidime, CAMHB, 16-20 hours at 37° C.
Excerpt: (§1) To determine the ability of test compounds to potentiate the inhibition of the growth of bacterial strains that produce beta-lactamase enzymes, classic cell based broth microdilution MIC assays were employed. Six bacteria strains producing beta-lactamase enzymes were used: E. coli expressing the Class A Extended Spectrum Beta-Lactamase (ESBL) CTX-M-15, E. cloacae expressing the Class C P99, K. pneumoniae expressing the Class A carbapenemase KPC-3, P. aeruginosa expressing the Class B carbapenemase VIM-2, K. pneumoniae expressing the class A carbapenemase KPC-2 and the class B carbapenemase VIM-4, and S. aureus producing the Class A penicillinase PC-1. The assay was conducted in Cation Adjusted Mueller Hinton Broth (CAMHB, BD #212322, BD Diagnostic Systems, Sparks, Md.). Bacteria strains were grown for 3-5 hours in CAMBH broth. Test compounds (Examples 1-30) were added to a microtiter plate in 2-fold serial dilutions in CAMHB in a final concentration range of 32 μg/mL to 0.25 μg/ml. An overlay of CAMHB containing a Beta-lactam was added to the compounds at a final static concentration of 4 μg/ml. […] In addition to the titration of test compounds the MICs of a panel of control beta-lactams is also tested to ensure the strains are behaving consistently from test to test. Once the test compound and antibiotics are added the plates can be inoculated according to CLSI broth microdilution method. After inoculation the plates are incubated for 16-20 hours at 37° C. then the Minimal Inhibitory Concentration (MIC) of the test compound is determined visually.
(§2) Using the methodology described above, examples of the current invention were evaluated for their ability to inhibit the growth of β-lactamase-producing bacteria in the presence of a β-lactam antibiotic.
(§3) Using the methodology described above in EXAMPLE III, exemplary compounds for Formula I or Formula Ia were evaluated for their ability to inhibit the growth of β-lactamase producing bacteria in the presence of a β-lactam antibiotic.

[2] = test system: E. cloacae 144200 expressing Class C P99 AmpC; experiment: Broth microdilution MIC, E. cloacae 144200 p99 AmpC; type: cell-based; conditions: for MIC of example compound in presence of fixed β-lactam: Fixed CAZ, E. cl. 144200 p99 AmpC: fixed 4 μg/mL ceftazidime, CAMHB, 16-20 hours at 37° C.
Excerpt: as §1, §2, §3

[3] = test system: S. aureus MSSA-7 producing penicillinase PC-1; experiment: Broth microdilution MIC, S. aureus MSSA-7 PC-1; type: cell-based; conditions: for MIC of example compound in presence of fixed β-lactam: Fixed Pip, S. aureus MSSA-7 PC-1: fixed 4 μg/mL piperacillin, CAMHB, 16-20 hours at 37° C.
Excerpt: as §1, §2, §3

[4] = test system: K. pneumoniae A-1797 expressing KPC-2 and VIM-4; experiment: Broth microdilution MIC, K. pneumoniae A-1797 KPC-2/VIM-4; type: cell-based; conditions: for MIC of example compound in presence of fixed β-lactam: Fixed Mero, K. P. A-1797 KPC-2 VIM-4: fixed 4 μg/mL meropenem, CAMHB, 16-20 hours at 37° C.
Excerpt: as §1, §2, §3

[5] = molecular target: T1, VIM-2 metallo-β-lactamase (Class B) (Pseudomonas aeruginosa, UniProt Q9K2N0); experiment: β-Lactamase inhibition, VIM-2; type: biochemical; conditions: nitrocefin 100 μM, 486 nm; 15 min preincubation at 37° C., PBS pH 7.4
T1 construct: made in house; host or cells: E. coli BL21(DE3)
Protocol: For Vim-2 metallo β-lactamase, the procedure was identical with the following exceptions, first the protein was not pH adjusted to pH 5 with 50 mM sodium acetate, second, the chromatography step was changed to a 5 ml Q sepharose anion exchange column pre-equilibrated with 50 mM Hepes pH 7.5, and elution of the protein was achieved by a linear gradient of NaCl (0-600 mM). Finally, the VIM-2 purification required a second run (3rd step) on the Q sepharose anion exchange column to achieve acceptable purity (>90%).
(§4) An equal volume of diluted enzyme stock was added, and the plates were incubated at 37° C. for 15 min. Nitrocefin was used as substrate for p99 AmpC, VIM-2 and OXA-1 and dispensed into each well at a final concentration of 100 μM. Absorbance at 486 nm was immediately monitored for 10 min using a Biotek Powerwave XS2 microplate spectrophotometer using the GEN5 software package (Biotek Instruments, Winooski Vt.). In an analogous fashion, imipenem was used as substrate for Kpc-2 and Cefotaxime was used for SHV-5, while changes in absorbance upon hydrolysis of the β-lactam ring were monitored at 300 nm and 260 nm respectively in UV-transparent 96-well microtiter assay plates. Maximum rates of hydrolysis were compared to those in control wells (without inhibitors), and percentages of enzyme inhibition were calculated for each concentration of inhibitor. The concentration of inhibitor needed to reduce the initial rate of hydrolysis of substrate by 50% (IC50) was calculated as the residual activity of β-lactamase at 486 nm using GraFit version 7 kinetics software package (Erithacus Software, Surrey, UK).
(§5) Using the methodology described above, examples of the current invention were evaluated for their ability to inhibit β-lactamase enzymes from all four Ambler classifications (A through D). […] NT=Not tested.

[6] = molecular target: T2, SHV-5 β-lactamase (Class A ESBL) (Klebsiella pneumoniae, UniProt P0A3M1); experiment: β-Lactamase inhibition, SHV-5; type: biochemical
T2 construct: made in house; host or cells: E. coli BL21(DE3)
Protocol: (§6) For SHV-5, Kpc-2, p99AmpC and OXA-1 β-lactamases, E. coli BL21(DE3) bacterial cells carrying expression plasmids (expressed as native untagged proteins) for the individual β-lactamases were grown in 1 L of Superbroth (Teknova Inc. Hollister, Calif.) supplemented with 100 μg/ml kanamycin selection and 1×5052 (0.5% glycerol, 0.05% glucose and 0.2% α-lactose) at 35° C. for 18-20 hours. Cells were harvested by centrifugation (4,000×g, 4° C., 20 min), resuspended in 50 ml of 10 mM HEPES pH 7.5 ( 1/20 of the initial volume). The cells were lysed by sonication (5 pulses of 45 seconds) at 45 W on ice. The lysates were clarified by centrifugation at 10,000×g for 40 minutes at 4° C. Samples were diluted 5-fold in 50 mM sodium acetate pH 5.0, stored overnight at 4° C., after which they were centrifuged at 10,000×g for 30 minutes to clarify, and filtered through 0.45 μm filters. The samples were loaded onto a 5 ml Capto S sepharose cation exchange column (GE Healthcare) pre-equilibrated with 50 mM sodium acetate pH 5.0. The column was washed with 5 column volumes of 50 mM sodium acetate pH 5.0 to wash out unbound protein and a linear gradient of NaCl (0 to 500 mM) was used to elute the protein (over 16 CV) from the column. Fractions were assayed for β-lactamase activity using Centa (Calbiochem, Gibbstown, N.J.) or Nitrocefin (EMD Millipore chemicals, Darmstadt, Germany) as a reporter β-lactamase substrate for activity in the isolated fractions. Active fractions were pooled, concentrated and further purified by gel filtration chromatography on a Superdex 75 prep grade gel filtration column (GE Healthcare, Piscataway, N.J.) pre-equilibrated in 50 mM Hepes pH 7.5, 150 mM NaCl. Active fractions were pooled concentrated, quantitated by BCA protein determination (Thermo Scientific, Rockford, Ill.), dialyzed into PBS and frozen at −80° C. in 20% glycerol until use.
as §4, §5

[7] = molecular target: T3, p99 AmpC β-lactamase (Class C) (Enterobacter cloacae, UniProt P05364); experiment: β-Lactamase inhibition, p99 AmpC; type: biochemical
T3 construct: made in house; host or cells: E. coli BL21(DE3)
Protocol: as §6, §4, §5

[8] = test system: P. aeruginosa Ps296 expressing VIM-2; experiment: Broth microdilution MIC, P. aeruginosa Ps296 VIM-2; type: cell-based; conditions: for MIC of example compound in presence of fixed β-lactam: Fixed Mero, P. aerug. Ps296 VIM-2: fixed 4 μg/mL meropenem, CAMHB, 16-20 hours at 37° C.
Excerpt: as §1, §2, §3

[9] = molecular target: T4, KPC-2 β-lactamase (Class A carbapenemase) (Klebsiella pneumoniae, UniProt Q9F663); experiment: β-Lactamase inhibition, KPC-2; type: biochemical; conditions: imipenem substrate, 300 nm; 15 min preincubation at 37° C., PBS pH 7.4
T4 construct: made in house; host or cells: E. coli BL21(DE3)
Protocol: as §6, §4, §5

[10] = test system: K. pneumoniae 156319 expressing KPC-3; experiment: Broth microdilution MIC, K. pneumoniae 156319 KPC-3; type: cell-based; conditions: for MIC of example compound in presence of fixed β-lactam: Fixed Mero, K. P. 156319 KPC-3: fixed 4 μg/mL meropenem, CAMHB, 16-20 hours at 37° C.
Excerpt: as §1, §2, §3

T3 sequence (P05364 21-381): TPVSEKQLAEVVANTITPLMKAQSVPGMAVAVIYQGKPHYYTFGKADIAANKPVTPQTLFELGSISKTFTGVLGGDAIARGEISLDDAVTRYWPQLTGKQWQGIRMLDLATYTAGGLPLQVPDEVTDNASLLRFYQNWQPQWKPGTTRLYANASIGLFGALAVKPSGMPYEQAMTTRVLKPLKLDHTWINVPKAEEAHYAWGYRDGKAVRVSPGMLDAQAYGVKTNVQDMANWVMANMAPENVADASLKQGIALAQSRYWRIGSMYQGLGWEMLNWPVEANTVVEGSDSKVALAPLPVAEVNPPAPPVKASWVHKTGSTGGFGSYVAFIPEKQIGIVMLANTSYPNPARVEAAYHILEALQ
T2 sequence (P0A3M1 22-286): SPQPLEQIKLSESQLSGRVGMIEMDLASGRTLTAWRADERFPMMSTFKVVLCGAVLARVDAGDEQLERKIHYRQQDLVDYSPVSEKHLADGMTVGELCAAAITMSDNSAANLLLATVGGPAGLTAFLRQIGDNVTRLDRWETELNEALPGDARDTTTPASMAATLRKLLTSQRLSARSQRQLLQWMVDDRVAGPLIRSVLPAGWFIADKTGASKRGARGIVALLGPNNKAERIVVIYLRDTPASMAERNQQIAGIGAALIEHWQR
T4 sequence (Q9F663 25-293, looked up): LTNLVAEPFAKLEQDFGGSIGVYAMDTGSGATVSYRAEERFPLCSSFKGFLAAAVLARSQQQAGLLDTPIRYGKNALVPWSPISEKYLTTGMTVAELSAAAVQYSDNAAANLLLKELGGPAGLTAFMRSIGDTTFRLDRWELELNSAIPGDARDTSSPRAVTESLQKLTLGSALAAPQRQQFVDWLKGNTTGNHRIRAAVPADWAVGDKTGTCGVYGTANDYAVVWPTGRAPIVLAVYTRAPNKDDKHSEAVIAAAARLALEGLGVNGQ

## CC(C)(O/N=C(\C(=O)N[C@@H]1C(=O)N2C(C(=O)[O-])=C(C[n+]3ccccc3)CS[C@H]12)c1csc(N)n1)C(=O)O [Ceftazidime, reference compound]
[1]; Escherichia coli, read-out: MIC alone, E. coli expressing CTX-M-15
  MIC: > 128 µg/mL
[2]; Enterobacter cloacae, read-out: MIC alone, E. cloacae expressing Class C P99
  MIC: 128 µg/mL

## N=C(N)N1CCC(CC(=O)N[C@H]2Cc3cccc(C(=O)O)c3OB2O)CC1 [Example 33, 3-[2-(1-Carbamimidoyl-piperidin-4-yl)-acetylamino]-2-hydroxy-3,4-dihydro-2H-benzo[e][1,2]oxaborinine-8-carboxylic acid]
[3]
  MIC of example compound in presence of fixed β-lactam: Fixed Pip, S. aureus MSSA-7 PC-1: C (the MIC in the presence of <4 μg/mL of a β-lactamase inhibitor)
[4]
  MIC of example compound in presence of fixed β-lactam: Fixed Mero, K. P. A-1797 KPC-2 VIM-4: B (the MIC in the presence of between 8 and 32 μg/mL of a β-lactamase inhibitor)
[5]
  IC50: 1 to 10 µM
[6]
  IC50: < 0.1 µM
[7]
  IC50: < 0.1 µM
[8]
  MIC of example compound in presence of fixed β-lactam: Fixed Mero, P. aerug. Ps296 VIM-2: A (an MIC of the fixed β-lactam antibiotic in the presence of >32 μg/mL of a β-lactamase inhibitor)
[1]
  MIC of example compound in presence of fixed β-lactam: Fixed CAZ, E. coli ESBL4 CTX-M-15: C (the MIC in the presence of <4 μg/mL of a β-lactamase inhibitor)
[9]
  IC50: 0.1 to 1 µM
[10]
  MIC of example compound in presence of fixed β-lactam: Fixed Mero, K. P. 156319 KPC-3: B (the MIC in the presence of between 8 and 32 μg/mL of a β-lactamase inhibitor)
[2]
  MIC of example compound in presence of fixed β-lactam: Fixed CAZ, E. cl. 144200 p99 AmpC: C (the MIC in the presence of <4 μg/mL of a β-lactamase inhibitor)

## N=C(N)NCCN1CCN(CC(=O)N[C@H]2Cc3cccc(C(=O)O)c3OB2O)C(=O)C1 [Example 38, 3-{2-[4-(2-Guanidino-ethyl)-2-oxo-piperazin-1-yl]-acetylamino}-2-hydroxy-3,4-dihydro-2H-benzo[e][1,2]oxaborinine-8-carboxylic acid]
[4]
  MIC of example compound in presence of fixed β-lactam: Fixed Mero, K. P. A-1797 KPC-2 VIM-4: A (an MIC of the fixed β-lactam antibiotic in the presence of >32 μg/mL of a β-lactamase inhibitor)
[5]
  IC50: 1 to 10 µM
[6]
  IC50: 0.1 to 1 µM
[7]
  IC50: < 0.1 µM
[8]
  MIC of example compound in presence of fixed β-lactam: Fixed Mero, P. aerug. Ps296 VIM-2: B (the MIC in the presence of between 8 and 32 μg/mL of a β-lactamase inhibitor)
[1]
  MIC of example compound in presence of fixed β-lactam: Fixed CAZ, E. coli ESBL4 CTX-M-15: C (the MIC in the presence of <4 μg/mL of a β-lactamase inhibitor)
[9]
  IC50: 1 to 10 µM
[10]
  MIC of example compound in presence of fixed β-lactam: Fixed Mero, K. P. 156319 KPC-3: C (the MIC in the presence of <4 μg/mL of a β-lactamase inhibitor)
[2]
  MIC of example compound in presence of fixed β-lactam: Fixed CAZ, E. cl. 144200 p99 AmpC: C (the MIC in the presence of <4 μg/mL of a β-lactamase inhibitor)

## NCCCN1CCC(CC(=O)N[C@H]2Cc3cccc(C(=O)O)c3OB2O)CC1 [Example 42, 3-{2-[1-(3-Amino-propyl)-piperidin-4-yl]-acetylamino}-2-hydroxy-3,4-dihydro-2H-benzo[e][1,2]oxaborinine-8-carboxylic acid]
[3]
  MIC of example compound in presence of fixed β-lactam: Fixed Pip, S. aureus MSSA-7 PC-1: C (the MIC in the presence of <4 μg/mL of a β-lactamase inhibitor)
[4]
  MIC of example compound in presence of fixed β-lactam: Fixed Mero, K. P. A-1797 KPC-2 VIM-4: A (an MIC of the fixed β-lactam antibiotic in the presence of >32 μg/mL of a β-lactamase inhibitor)
[5]
  IC50: 1 to 10 µM
[6]
  IC50: < 0.1 µM
[7]
  IC50: < 0.1 µM
[8]
  MIC of example compound in presence of fixed β-lactam: Fixed Mero, P. aerug. Ps296 VIM-2: B (the MIC in the presence of between 8 and 32 μg/mL of a β-lactamase inhibitor)
[1]
  MIC of example compound in presence of fixed β-lactam: Fixed CAZ, E. coli ESBL4 CTX-M-15: C (the MIC in the presence of <4 μg/mL of a β-lactamase inhibitor)
[9]
  IC50: < 0.1 µM
[10]
  MIC of example compound in presence of fixed β-lactam: Fixed Mero, K. P. 156319 KPC-3: C (the MIC in the presence of <4 μg/mL of a β-lactamase inhibitor)
[2]
  MIC of example compound in presence of fixed β-lactam: Fixed CAZ, E. cl. 144200 p99 AmpC: C (the MIC in the presence of <4 μg/mL of a β-lactamase inhibitor)

## C[C@@H](O)[C@H]1C(=O)N2C(C(=O)O)=C(S[C@@H]3CN[C@H](C(=O)N(C)C)C3)[C@H](C)[C@H]12 [Meropenem, reference compound]
[4]; Klebsiella pneumoniae, read-out: MIC alone, K. pneumoniae expressing KPC-2 and VIM-4
  MIC: 64 µg/mL
[8]; Pseudomonas aeruginosa, read-out: MIC alone, P. aeruginosa expressing VIM-2
  MIC: 16 µg/mL
[10]; Klebsiella pneumoniae, read-out: MIC alone, K. pneumoniae expressing KPC-3
  MIC: > 128 µg/mL

## CCN1CCN(C(=O)N[C@@H](C(=O)N[C@@H]2C(=O)N3[C@@H]2SC(C)(C)[C@@H]3C(=O)O)c2ccccc2)C(=O)C1=O [Piperacillin, reference compound]
[3]; Staphylococcus aureus, MSSA, partner antibiotic alone, no β-lactamase inhibitor
  MIC: 64 µg/mL
